Data on seven compounds can be found in ChEMBL document CHEMBL1127231, “The isolation and in vivo Potent Antitumor activity of clerodane diterpenoid from the oleoresin of the brazilian medicinal plant, copaifera langsdorfi desfon” (1994).

Structures are written as SMILES.

Common to all, as to assay type: functional
Assay [1] has as its system Mus musculus. In words: Antitumor activity was evaluated by the change in body weight against IMC carcinoma in mice at a dose of 77.6 mg/kg.
The test system of assay [2] is Mus musculus. As to the kind of experiment: Antitumor activity was evaluated by the increase in life span (I.L.S) against IMC carcinoma in mice at a dose of 77.6 mg/kg.
In assay [3] the test system is Mus musculus. As to the kind of experiment: Antitumor activity was evaluated by the change in life span (day) against IMC carcinoma in mice at a dose of 77.6 mg/kg.
Assay [4] deals with Mus musculus. In words: Antitumor activity was evaluated by the increase in life span (I.L.S) against IMC carcinoma in mice at a dose of 9.0 mg/kg.
Assay [5] concerns Mus musculus. As to the kind of experiment: Antitumor activity was evaluated by the change in life span (day) against IMC carcinoma in mice at a dose of 9.0 mg/kg.
Assay [6] relates to Mus musculus. In words: Antitumor activity was evaluated by the change in body weight against IMC carcinoma in mice at a dose of 9.0 mg/kg.
In assay [7] the test system is Mus musculus. As to the kind of experiment: Antitumor activity was evaluated by the change in life span (day) against IMC carcinoma in mice at a dose of 0.27 mg/kg.
Assay [8] relates to Mus musculus. As to the kind of experiment: Antitumor activity was evaluated by the change in body weight against IMC carcinoma in mice at a dose of 0.27 mg/kg.
Assay [9] has as its system Mus musculus. In words: Antitumor activity was evaluated by the increase in life span (I.L.S) against IMC carcinoma in mice at a dose of 0.27 mg/kg.
The test system of assay [10] is Mus musculus. In words: Antitumor activity was evaluated by the change in life span (day) against IMC carcinoma in mice at a dose of 1.8 mg/kg.
Assay [11] has as its system Mus musculus. In words: Antitumor activity was evaluated by the change in body weight against IMC carcinoma in mice at a dose of 1.8 mg/kg.
The test system of assay [12] is Mus musculus. As to the kind of experiment: Antitumor activity was evaluated by the increase in life span (I.L.S) against IMC carcinoma in mice at a dose of 1.8 mg/kg.
Assay [13] deals with Mus musculus. In words: Antitumor activity was evaluated by the change in life span (day) against IMC carcinoma in mice at a dose of 41.1 mg/kg.
Assay [14] relates to Mus musculus. In words: Antitumor activity was evaluated by the increase in life span (I.L.S) against IMC carcinoma in mice at a dose of 41.1 mg/kg.
Assay [15] concerns Mus musculus. In words: Antitumor activity was evaluated by the change in body weight against IMC carcinoma in mice at a dose of 41.1 mg/kg.
For assay [16], the system named is Mus musculus. As to the kind of experiment: Antitumor activity was evaluated by the change in life span (day) against IMC carcinoma in mice at a dose of 20.7 mg/kg.
Assay [17] relates to Mus musculus. In words: Antitumor activity was evaluated by the change in body weight against IMC carcinoma in mice at a dose of 20.7 mg/kg.
For assay [18], the system named is Mus musculus. As to the kind of experiment: Antitumor activity was evaluated by the increase in life span (I.L.S) against IMC carcinoma in mice at a dose of 20.7 mg/kg.
Assay [19] deals with Mus musculus. As to the kind of experiment: Antitumor activity was evaluated by the increase in life span (I.L.S) against IMC carcinoma in mice at a dose of 30.0 mg/kg.
The subject of assay [20] is Mus musculus. In words: Antitumor activity was evaluated by the change in life span (day) against IMC carcinoma in mice at a dose of 30.0 mg/kg.
The test system of assay [21] is Mus musculus. In words: Antitumor activity was evaluated by the change in body weight against IMC carcinoma in mice at a dose of 30.0 mg/kg.

As to `C[C@H]1CC[C@]2(C)C(C(=O)O)=CCC[C@H]2[C@]1(C)CCc1ccoc1`, the “Change in body weight” value in the assay on Mus musculus [1] is 1.6 g. The ILS at 77.6 mg/kg in the assay with Mus musculus [2] was 17%. This compound also came in with a Life span in the assay on Mus musculus [3] of 14.8 days.

Consider `C=C1CC[C@H]2C(C)(C)CCC[C@]2(C)[C@H]1CC/C(C)=C/CO`, for which the ILS at 9 mg/kg in the assay on Mus musculus [4] was determined as 2%. In the assay on Mus musculus [5], this compound came in with a Life span of 13 days. Also, the “Change in body weight” value in the assay on Mus musculus [6] worked out at 1.4 g.

In turn, `C=C1CCC[C@@H]2[C@](C)(CC/C(C)=C/CO)[C@@H](C)CC[C@]12C` came in with a Life span in the assay with Mus musculus [7] of 11.7 days. The “Change in body weight” value with Mus musculus [8] stood at 1.9 g. For the same compound, the ILS at 0.27 mg/kg with Mus musculus [9] is -8%.

As for `CC1=CCC[C@@H]2[C@@](C)(CC/C(C)=C/CO)[C@H](C)CC[C@]12C`, the Life span in the assay on Mus musculus [10] came out at 12.3 days. Moreover, in the assay on Mus musculus [11], the “Change in body weight” value is 1.4 g. The ILS at 1.8 mg/kg in the assay on Mus musculus [12] was -3%.

The compound `CC1=CCC[C@@H]2[C@@](C)(CC/C(C)=C/CO)[C@H](C)CC[C@@]12C` returned a Life span in the assay on Mus musculus [13] of 25.2 days. Moreover, in the assay on Mus musculus [14], the ILS at 41.1 mg/kg worked out at 98%. The “Change in body weight” value with Mus musculus [15] is listed as 0.1 g.

`C=C1CC[C@@H]2C(C)(C)CCC[C@@]2(C)[C@@H]1CC/C(C)=C/C(=O)O` [COPALIC ACID] had a Life span in the assay with Mus musculus [16] of 14 days. In the assay with Mus musculus [17], the “Change in body weight” value is listed as 1.5 g. In addition, the ILS at 20.7 mg/kg in the assay with Mus musculus [18] was 10%.

In the case of `O=c1[nH]cc(F)c(=O)[nH]1` [FLUOROURACIL], in the assay with Mus musculus [19], the ILS at 30 mg/kg was determined as 46%. Moreover, in the assay on Mus musculus [20], the Life span worked out at 18.5 days. Besides, in the assay on Mus musculus [21], the “Change in body weight” value is -1.8 g.
